Results: patent US20030166202A1, “P450 Monooxygenases of the cyp79 family” (priority 2000, published 2003)
Like-named read-outs stand apart in the source and are kept apart here.

Columns and labels:
CYP79F1 = CYP79F1 (Arabidopsis thaliana, UniProt Q949U1, M2A); details: E. coli C43(DE3) spheroplasts, GC-MS or TLC
Experimental: In a typical enzyme assay, 5 μl spheroplasts and 4 μl NADPH:cytochrome P450 reductase (equivalent to 0.04 units defined as 1 μmol cytochrome c/min) are incubated with substrate in buffer containing 30 mM KPi, pH 7.5, 3 mM NADPH, 3 mM reduced glutathione, 0.042% Tween 80, 1 mg ml^−1 L-α-dilauroylphosphatidylcholine in a total volume of 30 μl. Reaction mixtures containing spheroplasts of E. coli C43(DE3) transformed with empty vector are used as controls in all assays. 3.3 μM L-[U-^14C]phenylalanine (453 mCi/mmol; Pharmacia), 3.7 μM L-[U-^14C]tyrosine (449 mCi/mmol; Pharmacia), 0.1 mM L-[methyl-^14C]methionine (56 mCi/mmol; Pharmacia), and 24 μM L-[side chain-3-^14C]tryptophan (56.5 mCi/mmol; NEN) are tested as potential substrates. After incubation at 28° C. for 1 hour, half of the reaction mixture is analyzed by TLC on Silica Gel 60 F254 sheets (Merck) using toluene/ethyl acetate 5:1 (v/v) as eluent. Radiolabelled bands are visualized and quantified using a STORM 840 phosphoimager (Pharmacia). For GC-MS analysis, 450 μl reaction mixture containing 3.3 mM L-methionine (Sigma), 3.3 mM DL-dihomomethionine or 3.3 mM DL-trihomomethionine, respectively, are incubated for 4 hours at 25° C. and extracted with a total volume of 600 μl CHCl3. The organic phase is collected, evaporated, and the residue is dissolved in 15 μl CHCl3 and analyzed by GC-MS. […] An SGE column (BPX5, 25 m×0.25 mm, 0.25 μm film thickness) is used (heat pressure 100 kPa, splitless injection). The oven temperature program is as follows: 80° C. for 3 minutes, 80° C. to 180° C. at 5° C. min^−1, 180° C. to 300° C. at 20° C. min^−1, and 300° C. for 10 min. The ion source is run in EI mode (70 eV) at 200° C. […] DL-dihomomethionine, DL-trihomomethionine, 5-methylthiopentanaldoxime and 6-methylthiohexanaldoxime are synthesized as described (Dawson et al, J. Biol. Chem. 268: 27154-27159, 1993) and authenticated by NMR spectroscopy.

CYP79A2 = target: T1, CYP79A2 (Arabidopsis thaliana, UniProt Q9FLC8); assay: CYP79A2 activity in E. coli spheroplasts reconstituted with NADPH:cytochrome P450 oxidoreductase
T1 sequence (Q9FLC8 7-529 limits assumed): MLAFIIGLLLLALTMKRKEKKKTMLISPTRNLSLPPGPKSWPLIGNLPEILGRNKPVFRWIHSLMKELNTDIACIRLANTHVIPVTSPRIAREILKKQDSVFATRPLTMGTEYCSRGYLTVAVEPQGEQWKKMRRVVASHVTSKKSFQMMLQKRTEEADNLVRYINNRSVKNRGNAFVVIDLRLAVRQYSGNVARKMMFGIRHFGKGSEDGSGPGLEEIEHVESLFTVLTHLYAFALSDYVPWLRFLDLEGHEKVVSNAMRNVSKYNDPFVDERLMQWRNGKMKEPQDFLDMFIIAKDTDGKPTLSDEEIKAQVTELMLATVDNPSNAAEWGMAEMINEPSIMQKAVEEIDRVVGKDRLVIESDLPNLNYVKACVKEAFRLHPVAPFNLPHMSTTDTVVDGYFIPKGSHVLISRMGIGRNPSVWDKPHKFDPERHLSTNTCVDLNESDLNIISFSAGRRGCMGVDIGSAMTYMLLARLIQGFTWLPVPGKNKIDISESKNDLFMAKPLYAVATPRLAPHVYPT

CYP79B2 = target: T2, CYP79B2 (Arabidopsis thaliana, UniProt O81346); assay: CYP79B2 activity in E. coli spheroplasts reconstituted with NADPH:cytochrome P450 reductase
T2 sequence (O81346 1-541): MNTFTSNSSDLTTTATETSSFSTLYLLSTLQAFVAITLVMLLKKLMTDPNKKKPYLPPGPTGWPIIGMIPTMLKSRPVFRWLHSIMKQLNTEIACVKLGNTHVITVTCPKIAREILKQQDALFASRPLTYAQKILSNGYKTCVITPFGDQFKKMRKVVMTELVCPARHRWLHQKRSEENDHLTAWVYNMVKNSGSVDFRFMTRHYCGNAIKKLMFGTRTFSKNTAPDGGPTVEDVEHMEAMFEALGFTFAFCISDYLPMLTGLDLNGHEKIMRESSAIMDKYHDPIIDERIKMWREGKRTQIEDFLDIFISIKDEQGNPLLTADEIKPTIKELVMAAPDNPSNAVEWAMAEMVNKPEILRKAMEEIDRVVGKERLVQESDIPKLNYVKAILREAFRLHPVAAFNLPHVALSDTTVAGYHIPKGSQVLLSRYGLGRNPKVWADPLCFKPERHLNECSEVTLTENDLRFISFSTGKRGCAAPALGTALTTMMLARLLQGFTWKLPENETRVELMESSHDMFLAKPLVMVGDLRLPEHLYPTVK
Experimental: The activity of CYP79B2 is measured by reconstituting spheroplasts from E. coli expressing CYP79B2 with purified NADPH:cytochrome P450 reductase from Sorghum bicolor (L.) Moench. […] The reaction is incubated at 34° C. for 30 minutes, extracted two times with ethyl acetate and the ethyl acetate phase is analyzed by TLC using toluen:ethyl acetate 5:1 as eluent. Radiolabelled bands are visualized on a Storm 840 phosphorimager (Molecular Dynamics) and quantified with ImageQuant analysis software (Molecular Dynamics). Substrate specificity is investigated by substituting the ^14C-labelled tryptophan with ^14C-labelled tyrosine or phenylalanine. GC-MS is employed to verify the structure of the compound produced from tryptophan by recombinant CYP79B2. A 450 μl reaction mixture as described above containing 2 mM unlabelled tryptophan is incubated at 34° C. for 2 hours. The reaction mixture is extracted twice with 300 μl CHCl3 and lyophilized until dryness. GC-MS is performed with an HP5890 Series II gas chromatograph coupled to a Jeol JMS-AX505W mass spectrometer. Splitless injection on an SGE column (BPX5, 25 mm×0.25 mm, 0.25 μm film thickness) and a head pressure of 100 kPa are used.
Single colonies are grown overnight at 37° C. in LB medium containing 100 μg/ml ampicillin. 1 ml of the overnight culture is used to inoculate 75 ml TB medium containing 100 μg/ml ampicillin, 75 μg/ml δ-aminolevulinic acid, 1 mM thiamine and 1 mM IPTG. The TB cultures are grown for 44 hours at 125 rpm and 28° C.

cassava microsomes = assay: Metabolism of amino acids by cassava microsomes; type: biochemical; details: amino acid as substrate
CYP79D1 = CYP79D1 (Manihot esculenta, UniProt Q9M7B8); details: for inhibition of CYP79D1 val-oxime formation: reconstitution in presence of inhibitor
Experimental: Isolated, recombinant CYP79D1 is reconstituted and its catalytic activity determined in vitro using reaction mixtures with a total volume of 30 μl containing 2.5 pmol CYP79D1, 0.05 U NADPH P450-oxidoreductase (Benveniste et al, Biochem J 235: 365-373, 1986), 10.6 mM L-α-dioleyl phosphatidylcholine, 0.35 μCi [U-^14C]-L-amino acid (L-Val, L-Ile, L-Leu, L-Tyr or L-Phe; Amersham, Sweden), 1 mM NADPH, 0.1 M NaCl and 20 mM KPi pH 7.9. In assays containing ^14C-L-valine or ^14C-L-isoleucine, different amounts of unlabeled L- and D-amino acids (0-6 mM) are added. After incubation for 10 minutes at 30° C. the products formed are extracted into 60 μl ethyl acetate and separated on TLC sheets (Merck Kieselgel 60F254) using n-pentane/diethyl ether (50:50, v/v) or toluene/ethyl acetate (5:1, v/v) as eluents for aliphatic compounds and aromatic compounds, respectively. ^14C-labeled oximes are visualized and quantified using a STORM 840 phosphor imager (Molecular Dynamics, CA, USA). The activity of CYP79D1 is additionally measured in the presence of the inhibitors tetcyclasis, ABT and DPI under the same conditions as described above. For in vivo activity assays 200 μl P. pastoris cells are pelleted and resuspended in 100 μl 50 mM Tricine pH 7.9 and 0.35 μCi [U-^14C]-L-valine or L-isoleucine. After incubation for 30 minutes at 30° C. the cells are extracted with ethyl acetate and the products formed are analyzed as above.
CYP79D1 is reconstituted with sorghum NADPH-P450 oxidoreductase in the presence of high amounts of the lipid L-α-dioleyl phosphatidylcholine and 100 mM NaCl. […] To examine the effect of inhibitors on isolated CYP79D1, reconstitutions are performed in the presence of tetcyclasis, ABT and DPI using the same conditions as for cassava microsomes.

CYP79D2 = target: T3, CYP79D2 (Manihot esculenta, UniProt Q9M7B7); type: biochemical, cassava
T3 construct: made in house
Experimental: Investigations into the substrate specificity of CYP79D1, CYP79D2, CYP79E1, CYP79E2, CYP79A2, CYP79B2, CYP79B5 and CYP79F1 are carried out in E. coli spheroplasts reconstituted with sorghum NADPH-cytochrome P450 oxidoreductase in the presence of high amounts of lipids. L-α-dioleyl phosphatidyl choline and L-α-dilauroyl phosphatidyl choline are preferred lipids for the reconstitution. […] Depending on the nature of the substrate, substrate specificity may also be determined using intact P. pastoris cells or intact E. coli cells.
The ability of a P450 monooxygenase to convert an aliphatic or aromatic amino acid or chain-elongated methionine homologue to the corresponding oxime can be tested in an assay (see also example 5) comprising
a) incubating a reaction mixture comprising the P450 monooxygenase of the present invention or spheroplasts of E.coli cells expressing said enzyme, the parent amino acid, NADPH, oxygen, NADPH-cytochrome P450 oxidoreductase and lipid at ambient temperature for a certain period of time which is between 2 min and 2 to 6 hours;
b) terminating the reaction for example by the addition of a denaturing compounds such as ethyl acetate; and
c) chemically identifying and quantifying the aldoxime produced.

[1] = substrate: N[C@@H](Cc1ccccc1)C(=O)O; assay: purified protein, by the assay type; details: other: spheroplasts expressing 'native' CYP79A2, 2 hours at 26° C., pH 7.5

T3 sequence (Q9M7B7 whole entry): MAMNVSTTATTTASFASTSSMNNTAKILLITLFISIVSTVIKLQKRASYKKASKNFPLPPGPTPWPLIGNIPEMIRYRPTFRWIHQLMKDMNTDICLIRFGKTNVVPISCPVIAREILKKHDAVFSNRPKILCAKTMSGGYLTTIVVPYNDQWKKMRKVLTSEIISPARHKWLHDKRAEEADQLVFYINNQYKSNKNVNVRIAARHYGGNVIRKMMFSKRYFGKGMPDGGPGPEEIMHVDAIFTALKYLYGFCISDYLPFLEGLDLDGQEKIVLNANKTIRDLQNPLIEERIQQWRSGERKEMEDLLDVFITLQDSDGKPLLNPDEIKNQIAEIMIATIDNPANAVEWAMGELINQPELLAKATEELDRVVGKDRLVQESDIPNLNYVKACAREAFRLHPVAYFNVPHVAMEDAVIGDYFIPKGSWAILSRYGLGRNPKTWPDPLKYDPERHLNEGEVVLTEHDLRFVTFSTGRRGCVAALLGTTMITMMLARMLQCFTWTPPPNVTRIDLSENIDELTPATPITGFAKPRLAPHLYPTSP
CYP79D1, sequence (Q9M7B8 2-542): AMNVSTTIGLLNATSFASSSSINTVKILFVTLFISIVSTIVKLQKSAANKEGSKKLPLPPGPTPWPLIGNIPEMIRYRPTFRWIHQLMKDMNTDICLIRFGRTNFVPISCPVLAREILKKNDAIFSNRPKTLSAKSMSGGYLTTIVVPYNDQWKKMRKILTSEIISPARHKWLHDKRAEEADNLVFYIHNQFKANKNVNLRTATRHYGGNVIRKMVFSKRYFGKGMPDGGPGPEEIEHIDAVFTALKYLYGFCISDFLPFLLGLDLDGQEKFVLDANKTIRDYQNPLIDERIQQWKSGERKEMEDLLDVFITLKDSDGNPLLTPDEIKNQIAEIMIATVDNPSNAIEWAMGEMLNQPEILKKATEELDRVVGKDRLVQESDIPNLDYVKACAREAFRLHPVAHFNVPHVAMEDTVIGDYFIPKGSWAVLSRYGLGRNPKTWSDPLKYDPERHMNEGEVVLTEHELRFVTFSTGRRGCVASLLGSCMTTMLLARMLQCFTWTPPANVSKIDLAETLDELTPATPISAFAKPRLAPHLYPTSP
CYP79F1, sequence (Q949U1 whole entry M2A): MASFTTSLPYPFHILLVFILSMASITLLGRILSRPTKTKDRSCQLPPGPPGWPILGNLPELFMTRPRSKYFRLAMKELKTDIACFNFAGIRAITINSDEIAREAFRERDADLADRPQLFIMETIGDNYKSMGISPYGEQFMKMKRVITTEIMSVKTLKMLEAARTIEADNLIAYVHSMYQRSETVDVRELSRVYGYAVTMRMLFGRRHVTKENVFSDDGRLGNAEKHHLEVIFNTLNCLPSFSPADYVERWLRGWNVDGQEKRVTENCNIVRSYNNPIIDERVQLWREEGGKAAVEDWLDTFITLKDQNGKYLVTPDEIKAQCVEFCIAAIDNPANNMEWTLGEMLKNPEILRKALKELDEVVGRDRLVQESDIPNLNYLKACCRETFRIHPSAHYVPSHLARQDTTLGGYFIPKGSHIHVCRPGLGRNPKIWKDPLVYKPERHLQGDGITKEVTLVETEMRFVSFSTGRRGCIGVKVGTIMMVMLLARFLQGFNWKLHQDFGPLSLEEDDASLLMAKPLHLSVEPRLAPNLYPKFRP

Molecule: CSCCCCC(N)C(=O)O (racemic) [DL-dihomomethionine]
- formation of the corresponding aldoxime by CYP79F1 (CYP79F1): two compounds, which are not present in the control reactions, are detected by GC-MS

Molecule: NC(CCc1ccccc1)C(=O)O (racemic) [DL-homophenylalanine]
- production of the respective aldoxime by CYP79A2 (CYP79A2): absence of detectable amounts of the homophenylalanine-derived aldoxime

Molecule: CSCCCCCC(N)C(=O)O (racemic) [DL-trihomomethionine]
- formation of the corresponding aldoxime by CYP79F1 (CYP79F1): two compounds with retention times and fragmentation pattern identical with those of the E/Z-isomers of the synthetic 6-methylthiopentanaldoxime are detected

Molecule: Oc1ccc(Cl)cc1Cl [2,4-dichlorophenol, reference compound]
- inhibition of CYP79B2 activity (CYP79B2; 100 mM H2O2, 1 mM MnCl2 or 800 μM 2,4-dichlorophenol added to reconstitution assay): 72%

Molecule: CC[C@@H](C)[C@@H](N)C(=O)O [D-isoleucine]
- metabolism / cyanide production by cassava microsomes (cassava microsomes): no metabolism is observed

Molecule: CC(C)[C@@H](N)C(=O)O [D-valine]
- binding to the active site of CYP79D1 (competition with 14C-L-valine) (CYP79D1): does not bind with high affinity
- formation of the corresponding oxime / metabolism by CYP79D1 (CYP79D1): neither the cassava microsomes nor isolated CYP79D1 metabolize
- metabolism / cyanide production by cassava microsomes (cassava microsomes): no metabolism is observed

Molecule: c1ccc2c(c1)[I+]c1ccccc1-2 [DPI, reference compound]
- inhibition of CYP79D1 val-oxime formation (CYP79D1): completely inhibits

Molecule: CC[C@H](C)[C@H](N)C(=O)O [L-isoleucine]
- conversion rate relative to L-valine (CYP79D1): approximately 60%
- formation of the corresponding oxime / metabolism by CYP79D1 (CYP79D1): corresponding oximes are formed
- conversion to the corresponding oxime by CYP79D2 (CYP79D2): found to convert
- metabolism / cyanide production by cassava microsomes (cassava microsomes): cyanide is produced

Molecule: CSCC[C@H](N)C(=O)O [L-methionine]
- production of the respective aldoxime by CYP79A2 (CYP79A2): does not result in production of detectable amounts of the respective aldoximes
- formation of the corresponding aldoxime by CYP79F1 (CYP79F1): did not result in the formation of detectable amounts of the corresponding aldoximes

Molecule: N[C@@H](Cc1ccccc1)C(=O)O [L-phenylalanine]
- production of the respective aldoxime by CYP79A2 (CYP79A2; TLC or GC-MS detection): produce two radiolabelled compounds which comigrate with the (E)- and (Z)-isomers of phenylacetaldoxime
- formation of the corresponding aldoxime by CYP79F1 (CYP79F1): did not result in the formation of detectable amounts of the corresponding aldoximes
- conversion to the corresponding oxime by CYP79D2 (CYP79D2): Neither L-Leucine, L-phenylalanine nor L-tyrosine are metabolized
- oxime production by CYP79B2 (CYP79B2; radiolabelled amino acid, TLC): No oxime producing activity is detected

Molecule: CC(C)[C@H](N)C(=O)O [L-valine]
- formation of the corresponding oxime / metabolism by CYP79D1 (CYP79D1): corresponding oximes are formed
- conversion to the corresponding oxime by CYP79D2 (CYP79D2): found to convert
- metabolism / cyanide production by cassava microsomes (cassava microsomes): cyanide is produced

Molecule: CCCCCCCC/C=C\CCCCCCCC(=O)OCCOCC(OCCO)C1OCC(OCCO)C1OCCO (stereo not drawn) [Tween 80]
- increase in aldoxime production (CYP79A2; additive at final concentration 0.083% (v/v)): 1.5 fold

Molecule: N[C@@H](CCC(=O)N[C@@H](CS)C(=O)NCC(=O)O)C(=O)O [reduced glutathione]
- effect on aldoxime production (CYP79A2; additive at final concentration 3 mM): stimulates aldoxime production, but to a lesser extent
- increase of CYP79B2 activity (CYP79B2; addition of 1.5 mM): 1.8 fold

Molecule: Clc1ccc(N2N=NC3C4CC(C5N=NC45)C32)cc1 (stereo not drawn) [tetcyclasis, reference compound]
- inhibition of CYP79D1 val-oxime formation (CYP79D1): inhibited

B1: CYP79A2 (Arabidopsis thaliana) (protein)
chain: MLAFIIGLLLLALTMKRKEKKKTMLISPTRNLSLPPGPKSWPLIGNLPEILGRNKPVFRWIHSLMKELNTDIACIRLANTHVIPVTSPRIAREILKKQDSVFATRPLTMGTEYCSRGYLTVAVEPQGEQWKKMRRVVASHVTSKKSFQMMLQKRTEEADNLVRYINNRSVKNRGNAFVVIDLRLAVRQYSGNVARKMMFGIRHFGKGSEDGSGPGLEEIEHVESLFTVLTHLYAFALSDYVPWLRFLDLEGHEKVVSNAMRNVSKYNDPFVDERLMQWRNGKMKEPQDFLDMFIIAKDTDGKPTLSDEEIKAQVTELMLATVDNPSNAAEWGMAEMINEPSIMQKAVEEIDRVVGKDRLVIESDLPNLNYVKACVKEAFRLHPVAPFNLPHMSTTDTVVDGYFIPKGSHVLISRMGIGRNPSVWDKPHKFDPERHLSTNTCVDLNESDLNIISFSAGRRGCMGVDIGSAMTYMLLARLIQGFTWLPVPGKNKIDISESKNDLFMAKPLYAVATPRLAPHVYPT
- Km [1]: 6.7 μmol I^−1
